# Reference: paper PMC5218480 (PLoS ONE, 2017)
# Tested on: MV-4-11 cells
# Experiment: Gene expression microarray analysis (Affymetrix PrimeView) and GSEA
# Assay type: cell-based, human
# Design: RFU PODN (11730768_x_at) / Fold change /veh PODN (11730768_x_at) / RFU LINC00158 (11744669_a_at) / Fold change /veh LINC00158 (11744669_a_at) / RFU DUSP10 (11751237_a_at) / Fold change /veh DUSP10 (11751237_a_at) / RFU ID3 (11757404_x_at) / Fold change /veh ID3 (11757404_x_at) / RFU PLEKHG5 (11737974_s_at) / Fold change /veh PLEKHG5 (11737974_s_at) / RFU LRRC4B (11730491_at) / Fold change /veh LRRC4B (11730491_at) / RFU GIMAP4 (11747438_a_at) / Fold change /veh GIMAP4 (11747438_a_at) / RFU KRT8 (11758183_x_at) / Fold change /veh KRT8 (11758183_x_at) / RFU CNN1 (11734310_a_at) / Fold change /veh CNN1 (11734310_a_at) / RFU VPS37D (11726825_at) / Fold change /veh VPS37D (11726825_at) / RFU C10orf10 (11716522_x_at) / Fold change /veh C10orf10 (11716522_x_at) / RFU KIR2DL2 /// KIR2DL4 /// KIR2DL5A /// KIR2DL5B /// KIR2DS1 /// KIR2DS2 /// KIR2DS3 /// KIR2DS4 /// KIR3DL3 /// KIR3DL3 /// KIR3DS1 (11738374_at) / Fold change /veh KIR2DL2 /// KIR2DL4 /// KIR2DL5A /// KIR2DL5B /// KIR2DS1 /// KIR2DS2 /// KIR2DS3 /// KIR2DS4 /// KIR3DL3 /// KIR3DL3 /// KIR3DS1 (11738374_at) / RFU C1QL1 (11718748_at) / Fold change /veh C1QL1 (11718748_at) / RFU TMPRSS4 (11747572_a_at) / Fold change /veh TMPRSS4 (11747572_a_at) / RFU HAMP (11756126_x_at) / Fold change /veh HAMP (11756126_x_at) / RFU RNFT2 (11725882_a_at) / Fold change /veh RNFT2 (11725882_a_at) / RFU NR4A2 (11747474_a_at) / Fold change /veh NR4A2 (11747474_a_at) / RFU ABCC12 (11746883_a_at) / Fold change /veh ABCC12 (11746883_a_at) / RFU TMEM136 (11760407_x_at) / Fold change /veh TMEM136 (11760407_x_at) / RFU CLDN22 /// WWC2 (11732394_at) / Fold change /veh CLDN22 /// WWC2 (11732394_at) / RFU HLA-DPB1 (11760878_x_at) / Fold change /veh HLA-DPB1 (11760878_x_at) / RFU SPINT1 (11716480_a_at) / Fold change /veh SPINT1 (11716480_a_at) / RFU GAP43 (11754022_s_at) / Fold change /veh GAP43 (11754022_s_at) / RFU A4GNT (11735810_at) / Fold change /veh A4GNT (11735810_at) / RFU PRB3 (11715151_x_at) / Fold change /veh PRB3 (11715151_x_at) / RFU TUBB4B (11761932_at) / Fold change /veh TUBB4B (11761932_at) / RFU CAPN14 (11732068_a_at) / Fold change /veh CAPN14 (11732068_a_at) / RFU TMCC2 (11721928_a_at) / Fold change /veh TMCC2 (11721928_a_at) / RFU IRGQ (11745062_a_at) / Fold change /veh IRGQ (11745062_a_at) / RFU FAM174B (11720279_a_at) / Fold change /veh FAM174B (11720279_a_at) / RFU TMPRSS4 (11748680_a_at) / Fold change /veh TMPRSS4 (11748680_a_at) / RFU FAM212B (11763350_a_at) / Fold change /veh FAM212B (11763350_a_at) / RFU PLEKHG5 (11743358_a_at) / Fold change /veh PLEKHG5 (11743358_a_at) / RFU ZSCAN30 (11745921_a_at) / Fold change /veh ZSCAN30 (11745921_a_at) / RFU CMKLR1 (11741424_a_at) / Fold change /veh CMKLR1 (11741424_a_at) / RFU LOC101060620 /// MAPK8IP1 (11723275_at) / Fold change /veh LOC101060620 /// MAPK8IP1 (11723275_at) / RFU SPTSSB (11747773_x_at) / Fold change /veh SPTSSB (11747773_x_at) / RFU PRSS12 (11739890_at) / Fold change /veh PRSS12 (11739890_at) / RFU BIN1 (11741810_x_at) / Fold change /veh BIN1 (11741810_x_at) / RFU WNT11 (11732464_a_at) / Fold change /veh WNT11 (11732464_a_at) / RFU C10orf10 (11716521_a_at) / Fold change /veh C10orf10 (11716521_a_at) / RFU C5orf56 (11738089_at) / Fold change /veh C5orf56 (11738089_at) / RFU CYB561 (11721691_x_at) / Fold change /veh CYB561 (11721691_x_at) / RFU ANKRD19P (11752326_a_at) / Fold change /veh ANKRD19P (11752326_a_at) / RFU OR2T12 /// OR2T33 /// OR2T8 (11738714_s_at) / Fold change /veh OR2T12 /// OR2T33 /// OR2T8 (11738714_s_at) / RFU VCAN (11748164_a_at) / Fold change /veh VCAN (11748164_a_at) / RFU JSRP1 (11732532_at) / Fold change /veh JSRP1 (11732532_at) / RFU KRTAP10-11 (11738290_x_at) / Fold change /veh KRTAP10-11 (11738290_x_at) / RFU MYO3A (11730013_a_at) / Fold change /veh MYO3A (11730013_a_at) / RFU EBF3 (11725865_a_at) / Fold change /veh EBF3 (11725865_a_at) / RFU CAMK2N1 (11719241_x_at) / Fold change /veh CAMK2N1 (11719241_x_at) / RFU C5orf56 (11738088_a_at) / Fold change /veh C5orf56 (11738088_a_at) / RFU OLFML3 (11715873_a_at) / Fold change /veh OLFML3 (11715873_a_at) / RFU LOC100653217 /// NTM (11731650_a_at) / Fold change /veh LOC100653217 /// NTM (11731650_a_at) / RFU MAPK11 (11762145_a_at) / Fold change /veh MAPK11 (11762145_a_at) / RFU FIZ1 (11724087_x_at) / Fold change /veh FIZ1 (11724087_x_at) / RFU OASL (11726364_x_at) / Fold change /veh OASL (11726364_x_at) / RFU SOX15 (11748057_x_at) / Fold change /veh SOX15 (11748057_x_at) / RFU CD79A (11719716_a_at) / Fold change /veh CD79A (11719716_a_at) / RFU HIST1H1D (11736915_at) / Fold change /veh HIST1H1D (11736915_at) / RFU CASKIN2 (11723855_a_at) / Fold change /veh CASKIN2 (11723855_a_at) / RFU LOC730098 (11760151_x_at) / Fold change /veh LOC730098 (11760151_x_at) / RFU OR4N2 (11742367_at) / Fold change /veh OR4N2 (11742367_at) / RFU PRRT2 (11749266_a_at) / Fold change /veh PRRT2 (11749266_a_at) / RFU SNX32 (11753110_a_at) / Fold change /veh SNX32 (11753110_a_at) / RFU CDHR5 (11726645_a_at) / Fold change /veh CDHR5 (11726645_a_at) / RFU RCAN1 (11760418_a_at) / Fold change /veh RCAN1 (11760418_a_at) / RFU FAM167A (11723789_a_at) / Fold change /veh FAM167A (11723789_a_at) / RFU FAM26E (11764081_at) / Fold change /veh FAM26E (11764081_at) / RFU ISYNA1 (11749810_s_at) / Fold change /veh ISYNA1 (11749810_s_at) / RFU ACY1 (11761880_at) / Fold change /veh ACY1 (11761880_at) / RFU 11764098_at / Fold change /veh 11764098_at / RFU SAMD14 (11745864_x_at) / Fold change /veh SAMD14 (11745864_x_at) / RFU NPB (11741838_a_at) / Fold change /veh NPB (11741838_a_at) / RFU TMPRSS6 (11731388_a_at) / Fold change /veh TMPRSS6 (11731388_a_at) / RFU KRTAP10-2 (11738614_at) / Fold change /veh KRTAP10-2 (11738614_at) / RFU ARHGAP8 /// PRR5-ARHGAP8 (11727945_x_at) / Fold change /veh ARHGAP8 /// PRR5-ARHGAP8 (11727945_x_at) / RFU KRTAP5-7 /// NADSYN1 (11734609_at) / Fold change /veh KRTAP5-7 /// NADSYN1 (11734609_at) / RFU RASL12 (11751679_a_at) / Fold change /veh RASL12 (11751679_a_at) / RFU CDKN2B (11736163_a_at) / Fold change /veh CDKN2B (11736163_a_at) / RFU PRF1 (11729649_at) / Fold change /veh PRF1 (11729649_at) / RFU, ZNF638 /// ZNF638-IT1 / Fold change vs veh, ZNF638 /// ZNF638-IT1 / RFU, PANK3 / Fold change vs veh, PANK3 / RFU, SH3YL1 / Fold change vs veh, SH3YL1 / RFU, ZEB2 / Fold change vs veh, ZEB2 / RFU, NRIP1 / Fold change vs veh, NRIP1 / RFU, PTTG1IP / Fold change vs veh, PTTG1IP / RFU, CAPN2 / Fold change vs veh, CAPN2 / RFU, MED14 / Fold change vs veh, MED14 / RFU, SNORA58 / Fold change vs veh, SNORA58 / RFU, C1orf63 / Fold change vs veh, C1orf63 / RFU, LRRFIP1 / Fold change vs veh, LRRFIP1 / RFU, NDUFAF7 / Fold change vs veh, NDUFAF7 / RFU, SLC12A2 / Fold change vs veh, SLC12A2 / RFU, IBTK / Fold change vs veh, IBTK / RFU, ESF1 / Fold change vs veh, ESF1 / Fold change vs veh, TMEM50B / RFU, TAOK1 / Fold change vs veh, TAOK1 / RFU, ACBD3 / Fold change vs veh, ACBD3 / RFU, TMA16 / Fold change vs veh, TMA16 / RFU, RWDD3 / Fold change vs veh, RWDD3 / RFU, BCAT1 / Fold change vs veh, BCAT1 / RFU, EDEM3 / Fold change vs veh, EDEM3 / RFU, TMEM33 / Fold change vs veh, TMEM33 / RFU, WDR75 / Fold change vs veh, WDR75 / RFU, AHCTF1 / Fold change vs veh, AHCTF1 / RFU, TFRC / Fold change vs veh, TFRC / RFU, ZDHHC17 / Fold change vs veh, ZDHHC17 / RFU, NOM1 / Fold change vs veh, NOM1 / RFU, ARL8B / Fold change vs veh, ARL8B / RFU, ZBTB11 / Fold change vs veh, ZBTB11 / RFU, TAMM41 / Fold change vs veh, TAMM41 / RFU, KIAA1704 /// LOC100996395 / Fold change vs veh, KIAA1704 /// LOC100996395 / RFU, ING1 / Fold change vs veh, ING1 / RFU, TRMT61B / Fold change vs veh, TRMT61B / RFU, FUBP3 / Fold change vs veh, FUBP3 / RFU, TP53 / Fold change vs veh, TP53 / RFU, TNKS2 / Fold change vs veh, TNKS2 / RFU, ZFP14 / Fold change vs veh, ZFP14 / RFU, ACTR2 / Fold change vs veh, ACTR2 / RFU, PPP3R1 / Fold change vs veh, PPP3R1 / RFU, PIK3R1 / Fold change vs veh, PIK3R1 / RFU, HNRNPA1 / Fold change vs veh, HNRNPA1 / RFU, RNF170 / Fold change vs veh, RNF170 / RFU, ZNF28 / Fold change vs veh, ZNF28 / RFU, RNGTT / Fold change vs veh, RNGTT / RFU, OGT / Fold change vs veh, OGT / RFU, BRD1 / Fold change vs veh, BRD1 / RFU, MARS / Fold change vs veh, MARS / RFU, ZNF655 / Fold change vs veh, ZNF655 / RFU, FAHD1 / Fold change vs veh, FAHD1 / RFU, BDP1 / Fold change vs veh, BDP1 / RFU, LRRCC1 / Fold change vs veh, LRRCC1 / RFU, ARID1A / Fold change vs veh, ARID1A / RFU, ZNF146 / Fold change vs veh, ZNF146 / RFU, ZNF330 / Fold change vs veh, ZNF330 / RFU, GPN3 / Fold change vs veh, GPN3 / RFU, C9orf123 / Fold change vs veh, C9orf123 / RFU, N4BP2L2 / Fold change vs veh, N4BP2L2 / RFU, ARFIP1 / Fold change vs veh, ARFIP1 / RFU, FAM179B / Fold change vs veh, FAM179B / RFU, BCL10 / Fold change vs veh, BCL10 / RFU, UHRF1BP1L / Fold change vs veh, UHRF1BP1L / RFU, BET1 / Fold change vs veh, BET1 / RFU, CNOT2 / Fold change vs veh, CNOT2 / RFU, ZNF268 / Fold change vs veh, ZNF268 / Fold change vs veh, ZNF507 / RFU, DGCR2 / Fold change vs veh, DGCR2 / RFU, WDSUB1 / Fold change vs veh, WDSUB1 / Fold change vs veh, HSP90B1 /// MIR3652 / RFU, ADSS / Fold change vs veh, ADSS / RFU, GK / Fold change vs veh, GK / RFU, ZNF148 / Fold change vs veh, ZNF148 / RFU, TAF9 / Fold change vs veh, TAF9 / RFU, SLC1A5 / Fold change vs veh, SLC1A5 / RFU, SLMO2 / Fold change vs veh, SLMO2 / RFU, ABCC4 / Fold change vs veh, ABCC4 / RFU, LOC101060439 /// RAP1B / Fold change vs veh, LOC101060439 /// RAP1B / RFU, RFX7 / Fold change vs veh, RFX7 / RFU, GTPBP10 / Fold change vs veh, GTPBP10 / RFU, CNEP1R1 / Fold change vs veh, CNEP1R1 / RFU, BIVM-ERCC5 /// ERCC5 / Fold change vs veh, BIVM-ERCC5 /// ERCC5 / RFU, ILF3 / Fold change vs veh, ILF3 / RFU 11762660_at / Fold change /veh 11762660_at / RFU VCAN (11757783_s_at) / Fold change /veh VCAN (11757783_s_at) / RFU DDX43 (11728927_at) / Fold change /veh DDX43 (11728927_at) / RFU KRT8 (11758188_x_at) / Fold change /veh KRT8 (11758188_x_at) / RFU NKD1 (11759106_at) / Fold change /veh NKD1 (11759106_at) / RFU SRD5A1 (11742802_a_at) / Fold change /veh SRD5A1 (11742802_a_at) / RFU TPSAB1 /// TPSB2 (11721975_s_at) / Fold change /veh TPSAB1 /// TPSB2 (11721975_s_at) / RFU GSTM3 (11746129_a_at) / Fold change /veh GSTM3 (11746129_a_at) / RFU IL23R (11737362_x_at) / Fold change /veh IL23R (11737362_x_at) / RFU TMEM51 (11727254_a_at) / Fold change /veh TMEM51 (11727254_a_at) / RFU PIWIL2 (11732686_x_at) / Fold change /veh PIWIL2 (11732686_x_at) / RFU ORM1 (11744905_x_at) / Fold change /veh ORM1 (11744905_x_at) / RFU CCDC152 (11743942_at) / Fold change /veh CCDC152 (11743942_at) / RFU ECM1 (11717891_a_at) / Fold change /veh ECM1 (11717891_a_at) / RFU IL23R (11748794_a_at) / Fold change /veh IL23R (11748794_a_at) / RFU TNFAIP8L3 (11732012_x_at) / Fold change /veh TNFAIP8L3 (11732012_x_at) / RFU MBOAT4 (11741988_at) / Fold change /veh MBOAT4 (11741988_at) / RFU 11764193_at / Fold change /veh 11764193_at / RFU TMEM53 (11763286_at) / Fold change /veh TMEM53 (11763286_at) / RFU MAGEB2 (11727129_at) / Fold change /veh MAGEB2 (11727129_at) / RFU TMEM200A (11744735_a_at) / Fold change /veh TMEM200A (11744735_a_at) / RFU CCDC152 (11751479_a_at) / Fold change /veh CCDC152 (11751479_a_at) / RFU FAM211A (11726209_a_at) / Fold change /veh FAM211A (11726209_a_at) / RFU RGS16 (11746705_a_at) / Fold change /veh RGS16 (11746705_a_at) / RFU VCAN (11755009_s_at) / Fold change /veh VCAN (11755009_s_at) / RFU RHOB (11743442_s_at) / Fold change /veh RHOB (11743442_s_at) / RFU RGS16 (11720943_a_at) / Fold change /veh RGS16 (11720943_a_at) / RFU RGS16 (11720944_at) / Fold change /veh RGS16 (11720944_at) / RFU, VPS4B / Fold change vs veh, VPS4B / RFU, CREB1 / Fold change vs veh, CREB1 / RFU, DNAJC13 / Fold change vs veh, DNAJC13 / RFU, GNAQ / Fold change vs veh, GNAQ / RFU, CDK5R1 / Fold change vs veh, CDK5R1 / RFU, ZRANB3 / Fold change vs veh, ZRANB3 / RFU, CUL4A / Fold change vs veh, CUL4A / RFU, CCNY / Fold change vs veh, CCNY / RFU, UFL1 / Fold change vs veh, UFL1 / RFU, COG3 / Fold change vs veh, COG3 / RFU, DIAPH2 / Fold change vs veh, DIAPH2 / RFU, SKA2 / Fold change vs veh, SKA2 / RFU, AFF3 / Fold change vs veh, AFF3 / RFU, LMF1 / Fold change vs veh, LMF1 / RFU, IPO11 / Fold change vs veh, IPO11 / RFU, DFFB / Fold change vs veh, DFFB / RFU, FOXP1 / Fold change vs veh, FOXP1 / RFU, CARD8 / Fold change vs veh, CARD8 / RFU, STRN3 / Fold change vs veh, STRN3 / RFU, ADK / Fold change vs veh, ADK / RFU, RASSF2 / Fold change vs veh, RASSF2 / RFU, WIPF1 / Fold change vs veh, WIPF1 / RFU, LARP1B / Fold change vs veh, LARP1B / RFU, RASA1 / Fold change vs veh, RASA1 / RFU, RB1 / Fold change vs veh, RB1 / RFU, PPFIA1 / Fold change vs veh, PPFIA1 / RFU, MAT2A / Fold change vs veh, MAT2A / RFU, CCT5 / Fold change vs veh, CCT5 / RFU, WDR92 / Fold change vs veh, WDR92 / RFU, CUX1 / Fold change vs veh, CUX1 / RFU, TTC7A / Fold change vs veh, TTC7A / RFU, TMEM135 / Fold change vs veh, TMEM135 / RFU, DEPTOR / Fold change vs veh, DEPTOR / RFU, CPM / Fold change vs veh, CPM / RFU, DNAJB6 / Fold change vs veh, DNAJB6 / RFU, CACNA2D3 / Fold change vs veh, CACNA2D3 / RFU, DTX4 / Fold change vs veh, DTX4 / RFU, TFCP2 / Fold change vs veh, TFCP2 / RFU, GMCL1 /// GMCL1P1 / Fold change vs veh, GMCL1 /// GMCL1P1 / RFU, AEBP2 / Fold change vs veh, AEBP2 / RFU, SNHG1 /// SNORD22 /// SNORD25 /// SNORD26 /// SNORD27 /// SNORD28 /// SNORD29 /// SNORD31 / Fold change vs veh, SNHG1 /// SNORD22 /// SNORD25 /// SNORD26 /// SNORD27 /// SNORD28 /// SNORD29 /// SNORD31 / Fold change (Aza/veh), C12orf56 (ProbeSet 11735607_a_at) / Fold change (ACY-1035/veh), C12orf56 (ProbeSet 11735607_a_at) / Fold change (Aza/veh), FGFR1OP (ProbeSet 11751329_s_at) / Fold change (ACY-1035/veh), FGFR1OP (ProbeSet 11751329_s_at) / Fold change (Aza/veh), VPS36 (ProbeSet 11739960_a_at) / Fold change (ACY-1035/veh), VPS36 (ProbeSet 11739960_a_at) / RFU SYPL1 (11715823_x_at) / Fold change /veh SYPL1 (11715823_x_at) / RFU IGFBP7 (11715501_s_at) / Fold change /veh IGFBP7 (11715501_s_at) / RFU REEP3 (11722064_at) / Fold change /veh REEP3 (11722064_at) / RFU IGLL1 (11728026_x_at) / Fold change /veh IGLL1 (11728026_x_at): dose or concentration left out as unconfirmed
# Settings: ProbeSet 11755425_a_at; LIST B
compound,measurement,value
Nc1ccc(-c2cccs2)cc1NC(=O)c1ccc2c(c1)cc(C1CC1)n2CCN1CCOCC1 [ACY-1035],"RFU, FAM179B",77.88 RFU
